# Laboratory results: US20100267561A1, “HERBICIDAL PYRIDAZINONE DERIVATIVES” (priority 2007, published 2010)
# Legend:
# Experiment in all cases: Test E pre-/postemergence plant response
# Type in all cases: in vivo
# Settings in all cases: scale 0 to 100
# [1] = tested on: dallisgrass (Paspalum dilatatum)
# Outline: (§1)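 Formulated in a non-phytotoxic solvent mixture containing surfactant, compound was applied to soil at planting or sprayed on emerged plants at the 1- to 4-leaf stage. Visual comparison with controls followed 14 to 21 days in the greenhouse; 0 = no effect, 100 = complete control.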
# [2] = tested on: purple nutsedge (Cyperus rotundus)
# Outline: as §1
# [3] = tested on: johnsongrass (Sorghum halepense)
# Outline: as §1
# [4] = tested on: itchgrass (Rottboellia cochinchinensis)
# Outline: as §1
# [5] = tested on: green foxtail (Setaria viridis)
# Outline: as §1
# [6] = tested on: bermudagrass (Cynodon dactylon)
# Outline: as §1
# [7] = tested on: surinam grass (Brachiaria decumbens)
# Outline: as §1
# [8] = tested on: barnyardgrass (Echinochloa crus-galli)
# Outline: as §1
# [9] = tested on: common mallow (Malva sylvestris)
# Outline: as §1
# [10] = tested on: guineagrass (Panicum maximum)
# Outline: as §1
# [11] = tested on: pitted morningglory (Ipomoea lacunosa)
# Outline: as §1
# [12] = tested on: common purslane (Portulaca oleracea)
# Outline: as §1
# [13] = tested on: black mustard (Brassica nigra)
# Outline: as §1
# [14] = tested on: broadleaf signalgrass (Brachiaria platyphylla)
# Outline: as §1
# [15] = tested on: southern (S.) sandbur (Cenchrus echinatus)
# Outline: as §1
# [16] = tested on: Italian ryegrass (Lolium multiflorum)
# Outline: as §1
# [17] = tested on: annual bluegrass (Poa annua)
# Outline: as §1
smiles,measurement,setting,value
CCOC(=O)Oc1cnn(C)c(=O)c1-n1nc(-c2ccc(Cl)cc2)cc1C [Compound 53],"Plant response rating, Dallisgrass","[1]; 16 g ai/ha, Preemergence",65
same,"Plant response rating, Dallisgrass","[1]; 31 g ai/ha, Preemergence",80
same,"Plant response rating, Dallisgrass","[1]; 62 g ai/ha, Preemergence",95
same,"Plant response rating, Dallisgrass","[1]; Postemergence, 8 g ai/ha",0
same,"Plant response rating, Dallisgrass","[1]; Postemergence, 16 g ai/ha",20
same,"Plant response rating, Dallisgrass","[1]; Postemergence, 31 g ai/ha",30
same,"Plant response rating, Dallisgrass","[1]; Postemergence, 62 g ai/ha",75
same,"Plant response rating, Nutsedge, Purple","[2]; 16 g ai/ha, Preemergence",0
same,"Plant response rating, Nutsedge, Purple","[2]; 31 g ai/ha, Preemergence",35
same,"Plant response rating, Nutsedge, Purple","[2]; 62 g ai/ha, Preemergence",98
same,"Plant response rating, Nutsedge, Purple","[2]; Postemergence, 8 g ai/ha",0
same,"Plant response rating, Nutsedge, Purple","[2]; Postemergence, 16 g ai/ha",0
same,"Plant response rating, Nutsedge, Purple","[2]; Postemergence, 31 g ai/ha",0
same,"Plant response rating, Nutsedge, Purple","[2]; Postemergence, 62 g ai/ha",0
same,"Plant response rating, Johnsongrass","[3]; 16 g ai/ha, Preemergence",70
same,"Plant response rating, Johnsongrass","[3]; 31 g ai/ha, Preemergence",90
same,"Plant response rating, Johnsongrass","[3]; 62 g ai/ha, Preemergence",95
same,"Plant response rating, Johnsongrass","[3]; Postemergence, 8 g ai/ha",50
same,"Plant response rating, Johnsongrass","[3]; Postemergence, 16 g ai/ha",100
same,"Plant response rating, Johnsongrass","[3]; Postemergence, 31 g ai/ha",100
same,"Plant response rating, Johnsongrass","[3]; Postemergence, 62 g ai/ha",100
same,"Plant response rating, Itchgrass","[4]; 16 g ai/ha, Preemergence",75
same,"Plant response rating, Itchgrass","[4]; 31 g ai/ha, Preemergence",85
same,"Plant response rating, Itchgrass","[4]; 62 g ai/ha, Preemergence",90
same,"Plant response rating, Itchgrass","[4]; Postemergence, 8 g ai/ha",70
same,"Plant response rating, Itchgrass","[4]; Postemergence, 16 g ai/ha",90
same,"Plant response rating, Itchgrass","[4]; Postemergence, 31 g ai/ha",95
same,"Plant response rating, Itchgrass","[4]; Postemergence, 62 g ai/ha",98
same,"Plant response rating, Foxtail, Green","[5]; 16 g ai/ha, Preemergence",20
same,"Plant response rating, Foxtail, Green","[5]; 31 g ai/ha, Preemergence",65
same,"Plant response rating, Foxtail, Green","[5]; 62 g ai/ha, Preemergence",100
same,"Plant response rating, Foxtail, Green","[5]; Postemergence, 8 g ai/ha",70
same,"Plant response rating, Foxtail, Green","[5]; Postemergence, 16 g ai/ha",80
same,"Plant response rating, Foxtail, Green","[5]; Postemergence, 31 g ai/ha",90
same,"Plant response rating, Foxtail, Green","[5]; Postemergence, 62 g ai/ha",100
same,"Plant response rating, Bermudagrass","[6]; 16 g ai/ha, Preemergence",80
same,"Plant response rating, Bermudagrass","[6]; 31 g ai/ha, Preemergence",98
same,"Plant response rating, Bermudagrass","[6]; 62 g ai/ha, Preemergence",98
same,"Plant response rating, Bermudagrass","[6]; Postemergence, 8 g ai/ha",50
same,"Plant response rating, Bermudagrass","[6]; Postemergence, 16 g ai/ha",70
same,"Plant response rating, Bermudagrass","[6]; Postemergence, 31 g ai/ha",80
same,"Plant response rating, Bermudagrass","[6]; Postemergence, 62 g ai/ha",98
same,"Plant response rating, Surinam Grass","[7]; 16 g ai/ha, Preemergence",100
same,"Plant response rating, Surinam Grass","[7]; 31 g ai/ha, Preemergence",100
same,"Plant response rating, Surinam Grass","[7]; 62 g ai/ha, Preemergence",100
same,"Plant response rating, Surinam Grass","[7]; Postemergence, 8 g ai/ha",90
same,"Plant response rating, Surinam Grass","[7]; Postemergence, 16 g ai/ha",90
same,"Plant response rating, Surinam Grass","[7]; Postemergence, 31 g ai/ha",100
same,"Plant response rating, Surinam Grass","[7]; Postemergence, 62 g ai/ha",100
same,"Plant response rating, Barnyardgrass","[8]; 16 g ai/ha, Preemergence",95
same,"Plant response rating, Barnyardgrass","[8]; 31 g ai/ha, Preemergence",100
same,"Plant response rating, Barnyardgrass","[8]; 62 g ai/ha, Preemergence",100
same,"Plant response rating, Barnyardgrass","[8]; Postemergence, 8 g ai/ha",100
same,"Plant response rating, Barnyardgrass","[8]; Postemergence, 16 g ai/ha",100
same,"Plant response rating, Barnyardgrass","[8]; Postemergence, 31 g ai/ha",100
same,"Plant response rating, Barnyardgrass","[8]; Postemergence, 62 g ai/ha",100
same,"Plant response rating, Mallow","[9]; 62 g ai/ha, Preemergence",0
same,"Plant response rating, Mallow","[9]; Postemergence, 8 g ai/ha",0
same,"Plant response rating, Mallow","[9]; Postemergence, 16 g ai/ha",0
same,"Plant response rating, Mallow","[9]; Postemergence, 31 g ai/ha",0
same,"Plant response rating, Mallow","[9]; Postemergence, 62 g ai/ha",0
same,"Plant response rating, Guineagrass","[10]; 16 g ai/ha, Preemergence",98
same,"Plant response rating, Guineagrass","[10]; 31 g ai/ha, Preemergence",100
same,"Plant response rating, Guineagrass","[10]; 62 g ai/ha, Preemergence",100
same,"Plant response rating, Guineagrass","[10]; Postemergence, 8 g ai/ha",90
same,"Plant response rating, Guineagrass","[10]; Postemergence, 16 g ai/ha",98
same,"Plant response rating, Guineagrass","[10]; Postemergence, 31 g ai/ha",100
same,"Plant response rating, Guineagrass","[10]; Postemergence, 62 g ai/ha",100
same,"Plant response rating, Morningglory","[11]; 16 g ai/ha, Preemergence",0
same,"Plant response rating, Morningglory","[11]; 31 g ai/ha, Preemergence",0
same,"Plant response rating, Morningglory","[11]; 62 g ai/ha, Preemergence",35
same,"Plant response rating, Morningglory","[11]; Postemergence, 8 g ai/ha",0
same,"Plant response rating, Morningglory","[11]; Postemergence, 16 g ai/ha",0
same,"Plant response rating, Morningglory","[11]; Postemergence, 31 g ai/ha",0
same,"Plant response rating, Morningglory","[11]; Postemergence, 62 g ai/ha",30
same,"Plant response rating, Purslane","[12]; 16 g ai/ha, Preemergence",0
same,"Plant response rating, Purslane","[12]; 31 g ai/ha, Preemergence",0
same,"Plant response rating, Purslane","[12]; 62 g ai/ha, Preemergence",0
same,"Plant response rating, Purslane","[12]; Postemergence, 8 g ai/ha",0
same,"Plant response rating, Purslane","[12]; Postemergence, 16 g ai/ha",0
same,"Plant response rating, Purslane","[12]; Postemergence, 31 g ai/ha",0
same,"Plant response rating, Purslane","[12]; Postemergence, 62 g ai/ha",0
same,"Plant response rating, Mustard, Black","[13]; 16 g ai/ha, Preemergence",0
same,"Plant response rating, Mustard, Black","[13]; 31 g ai/ha, Preemergence",0
same,"Plant response rating, Mustard, Black","[13]; 62 g ai/ha, Preemergence",25
same,"Plant response rating, Mustard, Black","[13]; Postemergence, 8 g ai/ha",0
same,"Plant response rating, Mustard, Black","[13]; Postemergence, 16 g ai/ha",0
same,"Plant response rating, Mustard, Black","[13]; Postemergence, 31 g ai/ha",0
same,"Plant response rating, Mustard, Black","[13]; Postemergence, 62 g ai/ha",0
same,"Plant response rating, Signalgrass","[14]; 16 g ai/ha, Preemergence",40
same,"Plant response rating, Signalgrass","[14]; 31 g ai/ha, Preemergence",98
same,"Plant response rating, Signalgrass","[14]; 62 g ai/ha, Preemergence",98
same,"Plant response rating, Signalgrass","[14]; Postemergence, 8 g ai/ha",90
same,"Plant response rating, Signalgrass","[14]; Postemergence, 16 g ai/ha",95
same,"Plant response rating, Signalgrass","[14]; Postemergence, 31 g ai/ha",95
same,"Plant response rating, Signalgrass","[14]; Postemergence, 62 g ai/ha",100
same,"Plant response rating, Sandbur, S.","[15]; 16 g ai/ha, Preemergence",30
same,"Plant response rating, Sandbur, S.","[15]; 31 g ai/ha, Preemergence",100
same,"Plant response rating, Sandbur, S.","[15]; 62 g ai/ha, Preemergence",100
same,"Plant response rating, Sandbur, S.","[15]; Postemergence, 8 g ai/ha",65
same,"Plant response rating, Sandbur, S.","[15]; Postemergence, 16 g ai/ha",80
same,"Plant response rating, Sandbur, S.","[15]; Postemergence, 31 g ai/ha",95
same,"Plant response rating, Sandbur, S.","[15]; Postemergence, 62 g ai/ha",100
same,"Plant response rating, Ryegrass, Italian","[16]; 16 g ai/ha, Preemergence",90
same,"Plant response rating, Ryegrass, Italian","[16]; 31 g ai/ha, Preemergence",100
same,"Plant response rating, Ryegrass, Italian","[16]; 62 g ai/ha, Preemergence",100
same,"Plant response rating, Ryegrass, Italian","[16]; Postemergence, 8 g ai/ha",80
same,"Plant response rating, Ryegrass, Italian","[16]; Postemergence, 16 g ai/ha",100
same,"Plant response rating, Ryegrass, Italian","[16]; Postemergence, 31 g ai/ha",100
same,"Plant response rating, Ryegrass, Italian","[16]; Postemergence, 62 g ai/ha",100
same,"Plant response rating, Bluegrass","[17]; 16 g ai/ha, Preemergence",0
same,"Plant response rating, Bluegrass","[17]; 31 g ai/ha, Preemergence",0
same,"Plant response rating, Bluegrass","[17]; 62 g ai/ha, Preemergence",60
same,"Plant response rating, Bluegrass","[17]; Postemergence, 8 g ai/ha",0
same,"Plant response rating, Bluegrass","[17]; Postemergence, 16 g ai/ha",0
same,"Plant response rating, Bluegrass","[17]; Postemergence, 31 g ai/ha",0
same,"Plant response rating, Bluegrass","[17]; Postemergence, 62 g ai/ha",0
